Test results from patent US20250290074A1, “TARGETED TREATMENT OF SPLICEOPATHY-INDUCED NEUROLOGICAL DISORDERS” (Auttx, LLC, priority 2022, published 2025).
pEC50: −log10 of the molar value. Strand notation (5' to 3'): a small letter for the sugar, then the base; units joined by * are phosphorothioate-linked, units joined directly phosphodiester-linked; [ ] holds rarer units or linkages, { } end groups; capitals alone tell only the bases. e = 2'-O-(2-methoxyethyl) (MOE); [5mC] = 5-methylcytosine

Assays:
HNRNPL = details: Gene HNRNPL; cited from earlier work
TDP-43 aggregation = details: iPS cell derived motor neurons, sporadic ALS; Burkhardt et al. 2013; cited from earlier work
[1] = administered orally to human; U.S. Pat. No. 3,995,061; cited from earlier work
[2] = cited from earlier work
cancer = details: literature; cited from earlier work
hsHNRNP L mRNA = experiment: Time-course experiment, ASOs at 30 nM, hnRNP L mRNA by bDNA in BE(2)-M17 cells; format: cell-based, Homo sapiens; details: 30 nM ASO, mock controls set to 100%, incubations 24 h, 48 h, 72 h, time point not given
Experimental: Lipofectamine3000 (LF3000) was again used as the transfection agent. The transfection mixture was prepared identically on three plates. […] In this case, no outliers were removed. Data were generated in biological quadruplicates.
FIG. 26 includes a comparison of results from this study next to results from Example 7. Observing the results after 24 h incubation, similar data from the analysis in Example 7 were reproduced here.

[3] = test system: human hnRNP L (hsHNRNP L) mRNA; experiment: 5-point dose response (DRC) of ASOs, hnRNP L mRNA by branched DNA assay in BE(2)-M17 cells; format: cell-based; details: 24 h; for max. upregulation [%] (MV normalized hsHNRNP L/hsGAPDH): Lipofectamine3000, highest 120 nM, four 4-fold dilutions, bDNA, negative controls set to 100%; for pEC50: hsHNRNP L mRNA upregulation, XLfit
From the text: Data were generated in biological quadruplicates. […] No significant decrease in hsGAPDH mRNA levels was observed.
Details and data are shown in Table 9A-9B, FIG. 24, and FIG. 25A-25E. In some cases, there was dose dependent hsHNRNP L on-target mRNA upregulation to varying degrees when cells were transfected with ASO compounds of interest.

Compound	Source (DSigDB signature, association with increased hnRNP L levels) (HNRNPL)	MV normalized hsHNRNP L/hsGAPDH (hsHNRNP L mRNA) [%]	max. upregulation [%] (MV normalized hsHNRNP L/hsGAPDH) [3]	pEC50 [3]	also measured
CCc1c2c(nc3ccc(OC(=O)N4CCC(N5CCCCC5)CC4)cc13)-c1cc3c(c(=O)n1C2)COC(=O)[C@]3(O)CC [irinotecan]	D3(UP)				
C[C@H](CS)C(=O)N1CCC[C@H]1C(=O)O [captopril]	D3(UP)				
C[C@@H]1O[C@@H](O[C@@H]2C=C3CC[C@@H]4[C@H](CC[C@]5(C)[C@@H](c6ccc(=O)oc6)CC[C@]45O)[C@@]3(C)CC2)[C@H](O)[C@H](O)[C@H]1O [proscillaridin]	D3(UP)				hit in screen for compounds reducing TDP-43 aggregation (TDP-43 aggregation): hits confirmed in dose response assays
CCOc1c(Cl)c(C)c(C=O)c(O)c1C/C=C(C)/C=C/C1(C)C(C)CCC(=O)C1C (centres unmarked) [4-O-ethyl-ascochlorin]					toxicity [1]: low toxicity; toxicity (LD50) ([2]; IP or oral administration, U.S. Pat. No. 3,995,061, FIGS. 15A and 15B): low toxicity
CC(C=CC1(C)C(C)CCC(=O)C1C)=CCc1c(O)c(Br)c(C)c(C=O)c1O (centres unmarked) [3-bromoascochlorin, reference compound]					antitumorigenic / anti-cancer properties (cancer): anti-cancer properties
C/C(=C\Cc1c(O)c(Cl)c(C)c(C=O)c1O)CC/C=C(\C)[C@@H]1CC(=O)C(C)(C)O1 [ascofuranone]					antitumorigenic / anti-cancer properties (cancer): antitumorigenic properties; toxicity (shown to be non-toxic) ([2]; in vivo): non-toxic
C=C1CC[C@H](O)C(C)(C)[C@@H]1CC/C(C)=C/Cc1c(O)c(Cl)c(C)c(C=O)c1O [acremochlorin A, reference compound]					antitumorigenic / anti-cancer properties (cancer): anti-cancer properties
CN(C)C(=O)Oc1cccc([N+](C)(C)C)c1 [neostigmine bromide]	D3(UP)				
Skip-6A-12: ASO TGAAAGATGGCGTCCCATCAAA (SEQ ID NO: 61), fully 2′-MOE, 5′-methyl C, phosphorothioate; exon 6A (antisense eT*eG*eA*eA*eA*eG*eA*eT*eG*eG*e[5mC]*eG*eT*e[5mC]*e[5mC]*e[5mC]*eA*eT*e[5mC]*eA*eA*eA; listed as Homo sapiens)		14.5	36.6	7.78	
Skip-6A-20: ASO CTGTATTTTCTCTTACCATTGG (SEQ ID NO: 69), fully 2′-MOE, 5′-methyl C, phosphorothioate; exon 6A (antisense e[5mC]*eT*eG*eT*eA*eT*eT*eT*eT*e[5mC]*eT*e[5mC]*eT*eT*eA*e[5mC]*e[5mC]*eA*eT*eT*eG*eG; listed as Homo sapiens)		68.3	71.6	8.30	
Skip-6A-5: ASO ATGGTTTTACAGTCATAAATAC (SEQ ID NO: 54), fully 2′-MOE, 5′-methyl C, phosphorothioate; upstream intron (antisense eA*eT*eG*eG*eT*eT*eT*eT*eA*e[5mC]*eA*eG*eT*e[5mC]*eA*eT*eA*eA*eA*eT*eA*e[5mC]; listed as Homo sapiens)		67.3	41.6	8.14	
Skip-6A-4: ASO TACAGTCATAAATACAAGTCAC (SEQ ID NO: 53), fully 2′-MOE, 5′-methyl C, phosphorothioate; upstream intron (antisense eT*eA*e[5mC]*eA*eG*eT*e[5mC]*eA*eT*eA*eA*eA*eT*eA*e[5mC]*eA*eA*eG*eT*e[5mC]*eA*e[5mC]; listed as Homo sapiens)		26.9	24.0	7.72	
